Data reported in patent US8664257B2, “Oxygen-substituted 3-heteroaroylamino-propionic acid derivatives and their use as pharmaceuticals” (Sanofi, priority 2010, dated 2014).
pIC50: −log10 of the molar value.

Target: T1, Recombinant human cathepsin A (Homo sapiens, UniProt P10619)
T1 construct: Recombinant human cathepsin A (residues 29-480, with a C-terminal 10-His tag); 10-His (C); purchased R&D Systems 1049-SE
T1 sequence (P10619 29-312 limits assumed): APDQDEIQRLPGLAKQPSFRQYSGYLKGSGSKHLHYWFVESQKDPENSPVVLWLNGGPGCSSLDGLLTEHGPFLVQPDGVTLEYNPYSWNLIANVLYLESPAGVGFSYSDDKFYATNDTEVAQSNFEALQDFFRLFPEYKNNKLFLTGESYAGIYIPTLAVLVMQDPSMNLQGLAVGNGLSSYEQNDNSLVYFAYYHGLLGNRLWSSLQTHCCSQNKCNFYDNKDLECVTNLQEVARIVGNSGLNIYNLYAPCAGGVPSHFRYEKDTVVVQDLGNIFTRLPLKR
T1 sequence (P10619 327-480 limits assumed): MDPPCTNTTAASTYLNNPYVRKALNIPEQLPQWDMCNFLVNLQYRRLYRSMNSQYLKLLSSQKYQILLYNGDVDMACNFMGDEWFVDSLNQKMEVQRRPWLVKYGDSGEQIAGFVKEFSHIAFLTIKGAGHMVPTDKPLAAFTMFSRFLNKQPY
Assay: Cathepsin A inhibitory activity
Assay type: biochemical
Details: recombinant human cathepsin A; read-out: Activity (2): Cathepsin A inhibitory activity, IC50 class
Summary of the method: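 Read-out was microfluidic separation of cleaved vs. uncleaved Bodipy FL-bradykinin (2 μM), giving turnover, % inhibition and IC50. Compound and 833 ng/ml enzyme met for 15 min RT in pH 5.5 MES/DTT before substrate (15 min RT). The 29-480 His-tagged human enzyme was first activated by cathepsin L, then E-64 (10 μM).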

| Structure (SMILES) | pIC50 |
| --- | --- |
| COc1cc(C(=O)N[C@@H](CC(=O)N[C@H](CO)C(C)C)c2ccccc2C)nn1-c1ccccc1F [Example 936, 1-(2-Fluoro-phenyl)-5-methoxy-1H-pyrazole-3-carboxylic acid [(S)-2-((S)-1-hydroxymethyl-2-methyl-propylcarbamoyl)-1-o-tolyl-ethyl]-amide] | > 7.00 |
| COC[C@H](C)NC(=O)C[C@H](NC(=O)c1cc(OC)n(-c2ccccc2F)n1)c1ccccc1C [Example 937, 1-(2-Fluoro-phenyl)-5-methoxy-1H-pyrazole-3-carboxylic acid [(S)-2-((S)-2-methoxy-1-methyl-ethylcarbamoyl)-1-o-tolyl-ethyl]-amide] | > 7.00 |
| COc1cc(C(=O)N[C@@H](CC(=O)NC[C@@H]2CCCO2)c2ccccc2C)nn1-c1ccccc1F [Example 938, 1-(2-Fluoro-phenyl)-5-methoxy-1H-pyrazole-3-carboxylic acid ((S)-2-{[(S)-1-(tetrahydro-furan-2-yl)methyl]-carbamoyl}-1-o-tolyl-ethyl)-amide] | > 7.00 |
| COc1cc(C(=O)N[C@@H](CC(=O)N[C@H](C)C(C)C)c2ccccc2C)nn1-c1ccccc1F [Example 939, 1-(2-Fluoro-phenyl)-5-methoxy-1H-pyrazole-3-carboxylic acid [(S)-2-((R)-1,2-dimethyl-propylcarbamoyl)-1-o-tolyl-ethyl]-amide] | > 7.00 |
